Test results taken from PMC11372076, “A dual inhibitor of PIP5K1C and PIKfyve prevents SARS-CoV-2 entry into cells” (Experimental & Molecular Medicine, 2024).

What was measured:
Assay type in all cases: cell-based
cathepsin L = assay: Cathepsin L maturation by Western blot; conditions: Vero cells
RPE1 cells [1] = assay: LAMP1 accumulation (Western blot and immunofluorescence)
From the text: Supplementary Fig. 9 UNI418 is not a simple lysosomotropic agent. a Western blot of LAMP1 with UNI418 and Chloroquine. GAPDH was used as a loading control. NT, not treated. b Immunofluorescence images showing accumulation of LAMP1 in RPE1 cells with the indicated concentration of Chloroquine and UNI418 treatment, and images within the white rectangular boxes are zoomed in on the right side. Scale bar, 20 µm. c The mean of intensity in individual cell was quantified. Data presented as mean ± SEMs, n >20.
Significance was determined by Student’s t-test, ***p < 0.001.
(1 picture or pasted object on this page, not shown here)

RPE1 cells [2] = assay: Vacuolization analysis
Procedure: CUGAUCAAGAU G A -3 and PIKfyve#2 siRNA 5'-
[…] -3'. siRNA oligonucleotides were purchased from Genolution, Sigma- Aldrich and Integrated DNA Technologies.
These siRNAs were transfected into the cell using lipofectamine RNAiMAX (Invitrogen, 13778150) following manufacturer ’s protocol.
RPE1 cells were treated with UNI418 at indicated concentration for over-night.
After that, the image was taken by EVOS M5000 (Thermo Fisher Scientific).
RPE1 cells were treated with UNI418 at the different concentration during the time. Live cell images were taken by Lionheart LX Automated Microscope and analyzed in Gen5 (Agilent).
RPE1 cells were treated with indicated doses of UNI418 overnight. To analyze PIP2 level by flow cytometry, trypsinized cells were fixed with 4% paraformaldehyde for 10 min at room temperature. The fixed cells were permeabilized with 0.2% PBS-T (Triton X-100) for 5min and blocked with 5% Bovine Serum Albumin (BSA), and stained with the primary antibody for 4h at 4°C. Cells were washed three times with 1% BSA-PBS and incubated with the fluorescence- conjugated secondary antibody Alexa Fluor® 488 AffiniPure Goat Anti-Mouse IgG (H+L) (Jackson ImmunoResearch,111- 545- 003) for 1h at room temperature analyzed by BD Accuri C6 Plus flow cytometer (BD Biosciences). […]

RPE1 cells [3] = assay: Autophagic flux assay (LC3-II turnover with bafilomycin A1); conditions: 1 μM, 2 h, normal growth media
From the text: Fig. 2 UNI418 inhibits autophagy. a Western blot analysis of p62, LC3B-I, LC3B-II and GAPDH in the presence of UNC3230, apilimod and UNI418. b Immunofluorescence staining with LC3B (green) and p62 (red) antibodies upon treatment with UNC3230, apilimod and UNI418, and images within the white rectangular boxes are magnified on the right side. Scale bar, 20 µm. c The area of fluorescence intensity from immunofluorescence images (b) was quantified after UNC3230, apilimod and UNI418 treatments. d, e Quantification of autophagic flux under normal conditions and under HBSS-induced starvation conditions with or without UNI418 treatment. […]
The whole cell extracts were prepared by lysis of harvested cells with M -PER Mammalian protein extraction reagent (Thermo Fisher Scientific). The protein concentrations were determined by Bradford protein assay (Bio- Rad). […] The images were obtained and quantified by Fusion solo ChemiDoc system (Vilber).
Autophagic flux assay was analyzed essentially as previously described1,2.
Briefly, RPE1 cells were treated with UNI418 (0, 0.5, or 1 µM) for 2 h with/without bafilomycin A1 to inhibit lysosomal degradation under normal growth media or HBSS. […] The LC3- II bands were quantified using Fusion Solo ChemiDoc system (Vilber) and normalized to GAPDH bands. […]

How did the “proteolytic maturation of cathepsin L” value (cathepsin L) turn out when `c1ccc(-c2cc(Nc3nc(-c4ccncc4)nc4ccccc34)n[nH]2)cc1` [UNI418, N -(5-phenyl-1 H -pyrazol-3-yl)-2-(4-pyridinyl)-4-quinazolinamine] was run?
Its value is “considerably inhibited”.

And the “accumulation of LAMP1 or LAMP1-positive lysosomes” value (RPE1 cells [1])?
The value was “did not cause the accumulation”.

What about the vacuolization (RPE1 cells [2]) of the same molecule?
The vacuolization was “induced vacuolization”.

And the autophagic flux (RPE1 cells [3])?
The autophagic flux was “markedly inhibited”.
